Data reported in publication PMC8330742, “New benzothieno[2,3-c]pyridines as non-steroidal CYP17 inhibitors: design, synthesis, anticancer screening, apoptosis induction, and in silico ADME profile studies” (Journal of Enzyme Inhibition and Medicinal Chemistry, 2021).

Legend:
MALME-3M = assay: NCI-60 SRB screen; assay type: cell-based, human; details: Homo sapiens, single dose 10^−5 M, read-out: Growth inhibition (%)
HCT-15 = assay: NCI-60 SRB screen; assay type: cell-based, human; details: Homo sapiens; HCT-15; single dose 10^−5 M; read-out: Growth inhibition (%)
SK-MEL-2 = assay: NCI-60 SRB screen; assay type: cell-based, human; details: Homo sapiens; SK-MEL-2; single dose 10^−5 M; read-out: Growth inhibition (%)
SN12C = assay: NCI-60 SRB screen; assay type: cell-based, human; details: Homo sapiens, SN12C; SN 12 C; single dose 10^−5 M; read-out: Growth inhibition (%)
OVCAR-3 = assay: NCI-60 SRB screen; assay type: cell-based, human; details: Homo sapiens; OVCAR-3; single dose 10^−5 M; read-out: Growth inhibition (%)
A549/ATCC = assay: NCI-60 SRB screen; assay type: cell-based, human; details: Homo sapiens, single dose 10^−5 M, read-out: Growth inhibition (%)
HCC-2998 = assay: NCI-60 SRB screen; assay type: cell-based, human; details: Homo sapiens; HCC-2998; single dose 10^−5 M; read-out: Growth inhibition (%)
ACHN = assay: NCI-60 SRB screen; assay type: cell-based; details: Homo sapiens, single dose 10^−5 M, read-out: Growth inhibition (%)
HT-29 = assay: NCI-60 SRB screen; assay type: cell-based; details: Homo sapiens; HT-29; single dose 10^−5 M; read-out: Growth inhibition (%)
MOLT-4 = assay: NCI-60 SRB screen; assay type: cell-based; details: Homo sapiens; MOLT-4; single dose 10^−5 M; read-out: Growth inhibition (%)
NCI-H460 = assay: NCI-60 SRB screen; assay type: cell-based, human; details: Homo sapiens; NCI-H460; single dose 10^−5 M; read-out: Growth inhibition (%)
KM12 = assay: NCI-60 SRB screen; assay type: cell-based, human; details: Homo sapiens; KM12; single dose 10^−5 M; read-out: Growth inhibition (%)
HCT-116 = assay: NCI-60 SRB screen; assay type: cell-based, human; details: Homo sapiens; HCT-116; single dose 10^−5 M; read-out: Growth inhibition (%)
SF-268 = assay: NCI-60 SRB screen; assay type: cell-based, human; details: Homo sapiens; SF-268; single dose 10^−5 M; read-out: Growth inhibition (%)
CCRF-CEM = assay: NCI-60 SRB screen; assay type: cell-based; details: Homo sapiens, single dose 10^−5 M, read-out: Growth inhibition (%)
UACC-62 = assay: NCI-60 SRB screen; assay type: cell-based, human; details: Homo sapiens; UACC-62; single dose 10^−5 M; read-out: Growth inhibition (%)
HOP-62 = assay: NCI-60 SRB screen; assay type: cell-based, human; details: Homo sapiens; HOP-62; single dose 10^−5 M; read-out: Growth inhibition (%)
SR = assay: NCI-60 SRB screen; assay type: cell-based; details: Homo sapiens, single dose 10^−5 M, read-out: Growth inhibition (%)
SF-295 = assay: NCI-60 SRB screen; assay type: cell-based, human; details: Homo sapiens; SF-295; single dose 10^−5 M; read-out: Growth inhibition (%)
NCI-H322M = assay: NCI-60 SRB screen; assay type: cell-based, human; details: Homo sapiens, single dose 10^−5 M, read-out: Growth inhibition (%)
CAKI-1 = assay: NCI-60 SRB screen; assay type: cell-based, human; details: Homo sapiens; CAKI-1; single dose 10^−5 M; read-out: Growth inhibition (%)
MDA-MB-435 = assay: NCI-60 SRB screen; assay type: cell-based; details: Homo sapiens, MDA-MB-435, read-out: Growth inhibition (%)
UO-31 = assay: NCI-60 SRB screen; assay type: cell-based, human; details: Homo sapiens; UO-31; single dose 10^−5 M; read-out: Growth inhibition (%)
HOP-92 = assay: NCI-60 SRB screen; assay type: cell-based, human; details: Homo sapiens; HOP-92; single dose 10^−5 M; read-out: Growth inhibition (%)
OVCAR-8 = assay: NCI-60 SRB screen; assay type: cell-based, human; details: Homo sapiens; OVCAR-8; single dose 10^−5 M; read-out: Growth inhibition (%)
RXF 393 = assay: NCI-60 SRB screen; assay type: cell-based, human; details: Homo sapiens; RXF 393; single dose 10^−5 M; read-out: Growth inhibition (%)
NCI-H522 = assay: NCI-60 SRB screen; assay type: cell-based, human; details: Homo sapiens; NCI-H522; single dose 10^−5 M; read-out: Growth inhibition (%)
OVCAR-4 = assay: NCI-60 SRB screen; assay type: cell-based, human; details: Homo sapiens; OVCAR-4; single dose 10^−5 M; read-out: Growth inhibition (%)
[1] = system: panel of 60 cancer cell lines; assay: NCI-60 SRB screen, mean or range over the panel; assay type: cell-based, human; details: Homo sapiens; mean over the cell lines; single dose 10^−5 M; read-out: Mean growth inhibition (%)
LOX IMVI = assay: NCI-60 SRB screen; assay type: cell-based, human; details: Homo sapiens, single dose 10^−5 M, read-out: Growth inhibition (%)
TK-10 = assay: NCI-60 SRB screen; assay type: cell-based, human; details: Homo sapiens; TK-10; single dose 10^−5 M; read-out: Growth inhibition (%)
SK-MEL-5 = assay: NCI-60 SRB screen; assay type: cell-based, human; details: Homo sapiens; SK-MEL-5; single dose 10^−5 M; read-out: Growth inhibition (%)
SK-MEL-28 = assay: NCI-60 SRB screen; assay type: cell-based; details: Homo sapiens; SK-MEL-28; single dose 10^−5 M; read-out: Growth inhibition (%)
786-0 = assay: NCI-60 SRB screen; assay type: cell-based; details: Homo sapiens; 786-0; single dose 10^−5 M; read-out: Growth inhibition (%)
M14 = assay: NCI-60 SRB screen; assay type: cell-based, human; details: Homo sapiens; M14; single dose 10^−5 M; read-out: Growth inhibition (%)
UACC-257 = assay: NCI-60 SRB screen; assay type: cell-based, human; details: Homo sapiens, UACC-257; UACC-275 (so in the source); single dose 10^−5 M; read-out: Growth inhibition (%)
HL-60(TB) = assay: NCI-60 SRB screen; assay type: cell-based, human; details: Homo sapiens; HL-60 (TB); single dose 10^−5 M; read-out: Growth inhibition (%)
NCI/ADR-RES = assay: NCI-60 SRB screen; assay type: cell-based, human; details: Homo sapiens, single dose 10^−5 M, read-out: Growth inhibition (%)
COLO 205 = assay: NCI-60 SRB screen; assay type: cell-based, human; details: Homo sapiens; COLO 205; single dose 10^−5 M; read-out: Growth inhibition (%)
EKVX = assay: NCI-60 SRB screen; assay type: cell-based, human; details: Homo sapiens, single dose 10^−5 M, read-out: Growth inhibition (%)
IGROV1 = assay: NCI-60 SRB screen; assay type: cell-based, human; details: Homo sapiens, IGROV-1; IGROV1; single dose 10^−5 M; read-out: Growth inhibition (%)
NCI-H23 = assay: NCI-60 SRB screen; assay type: cell-based, human; details: Homo sapiens; NCI-H23; single dose 10^−5 M; read-out: Growth inhibition (%)
SW-620 = assay: NCI-60 SRB screen; assay type: cell-based; details: Homo sapiens; SW-620; single dose 10^−5 M; read-out: Growth inhibition (%)
K-562 = assay: NCI-60 SRB screen; assay type: cell-based, human; details: Homo sapiens, K562; K-562; single dose 10^−5 M; read-out: Growth inhibition (%)
NCI-H226 = assay: NCI-60 SRB screen; assay type: cell-based, human; details: Homo sapiens; NCI-H226; single dose 10^−5 M; read-out: Growth inhibition (%)

O=C1C(=Cc2ccccc2[N+](=O)[O-])Sc2c(F)cccc21 [Compound 2c, 7-Fluoro-2-(2-nitrobenzylidene)[1]benzothiophen-3(2H)-one]
inhibition at 10 µM (MALME-3M): 12.6% | inhibition at 10 µM (HCT-15): -1.05% | inhibition at 10 µM (SK-MEL-2): -9.11% | inhibition at 10 µM (SN12C): 7.57% | inhibition at 10 µM (OVCAR-3): 70.8% | inhibition at 10 µM (A549/ATCC): 4.91% | inhibition at 10 µM (HCC-2998): -11.4% | inhibition at 10 µM (ACHN): 7.28% | inhibition at 10 µM (HT-29): -7.17% | inhibition at 10 µM (MOLT-4): 19.8% | inhibition at 10 µM (NCI-H460): 59.2% | inhibition at 10 µM (KM12): 3.27% | inhibition at 10 µM (HCT-116): 80.5% | inhibition at 10 µM (SF-268): 5.43% | inhibition at 10 µM (CCRF-CEM): 26.3% | inhibition at 10 µM (UACC-62): 60.9% | inhibition at 10 µM (HOP-62): 20.4% | inhibition at 10 µM (SR): 37.2% | inhibition at 10 µM (SF-295): 27% | inhibition at 10 µM (NCI-H322M): 1.98% | inhibition at 10 µM (CAKI-1): 85.1% | inhibition at 10 µM (MDA-MB-435): -12.1% | inhibition at 10 µM (UO-31): 29.9% | inhibition at 10 µM (HOP-92): -11.4% | inhibition at 10 µM (OVCAR-8): 6.75% | inhibition at 10 µM (RXF 393): -3.1% | inhibition at 10 µM (NCI-H522): 2.94% | inhibition at 10 µM (OVCAR-4): 40.5% | inhibition at 10 µM [1]: 11.5% | inhibition at 10 µM (LOX IMVI): 11.1% | inhibition at 10 µM (TK-10): -30.9% | inhibition at 10 µM (SK-MEL-5): 8.44% | inhibition at 10 µM (SK-MEL-28): -4.83% | inhibition at 10 µM (786-0): -11% | inhibition at 10 µM (M14): -1.11% | inhibition at 10 µM (UACC-257): 78.8% | inhibition at 10 µM (HL-60(TB)): 28.8% | inhibition at 10 µM (NCI/ADR-RES): 13.5% | inhibition at 10 µM (COLO 205): -6.61% | inhibition at 10 µM (EKVX): 15.6% | inhibition at 10 µM (IGROV1): 66.5% | inhibition at 10 µM (NCI-H23): 13.3% | inhibition at 10 µM (SW-620): 68.8% | inhibition at 10 µM (K-562): 67.8% | inhibition at 10 µM (NCI-H226): 23.5%
